{
  "source": "paper PMC8387043",
  "about": "“Host Poly(A) Polymerases PAPD5 and PAPD7 Provide Two Layers of Protection That Ensure the Integrity and Stability of Hepatitis B Virus RNA” (Journal of Virology, 2021)",
  "key": {"[1]": {"system": "HBsAg", "assay": "HBsAg inhibition in adenovirus-HBsAg-transduced HepG2-NTCP WT and KO clones", "assay_type": "cell-based, hepatitis B virus", "details": "for EC50: Hepatitis B virus"}, "[2]": {"system": "HBV RNA poly(A) tails", "details": "Huh-7, 100 nM"}, "[3]": {"system": "HBV PRE", "assay": "HBV PRE cis-element reporter plasmids (HBsAg or Gluc) transfected in Huh-7 cells", "details": "Hepatitis B virus"}, "[4]": {"system": "DENV2", "assay": "Antiviral selectivity panel, CPE in BHK21 cells", "assay_type": "cell-based, Dengue virus 2", "details": "Dengue virus, DENV2, BHK-21", "procedure": "HepG2.2.15 (30,000 cells/well) were plated in 96-well collagen-treated plates and incubated at 37°C. Compounds were half-log serially diluted and added in duplicate to 96-well microtiter plates. The plates were incubated for a total duration of 6 days, after which the culture medium was removed for the HBsAg and HBeAg CLIA assays (AutoBio Diagnostics Co., China) performed according to the manufacturer’s instructions. Secreted HBV DNA was extracted (Realtime Ready cell lysis kit; Roche, Mannheim, Germany) and quantified in a qPCR assay (LightCycler 480 SYBR green I master mix; Roche) with the 5′-[…]-3′ (sense) and 5′-[…]-3′ (antisense) primers using the PCR conditions of denaturing at 95°C for 5 min followed by 40 cycles of amplification at 95°C for 15 s and 60°C for 30 s. Antiviral selectivity studies against a panel of different DNA and RNA viruses were performed at ImQuest BioSicences (Frederick, MD, USA). Briefly, test compounds were evaluated using 6 doses, including the highest concentration of 30 μM and five serial half-logarithmic dilutions in triplicate for the antiviral assays."}, "[5]": {"molecular_target": "T1, recombinant human PAPD7 (Homo sapiens, UniProt Q5XG87)", "T1 construct": "PAPD7 (amino acids 226 to 558; NM_006999.6); 10xHis (N); Flag (N); TEV cleavage site (N); host or cells: E. coli BL21(DE3), vector pET-24a(+)", "T1 sequence (Q5XG87 226-558)": "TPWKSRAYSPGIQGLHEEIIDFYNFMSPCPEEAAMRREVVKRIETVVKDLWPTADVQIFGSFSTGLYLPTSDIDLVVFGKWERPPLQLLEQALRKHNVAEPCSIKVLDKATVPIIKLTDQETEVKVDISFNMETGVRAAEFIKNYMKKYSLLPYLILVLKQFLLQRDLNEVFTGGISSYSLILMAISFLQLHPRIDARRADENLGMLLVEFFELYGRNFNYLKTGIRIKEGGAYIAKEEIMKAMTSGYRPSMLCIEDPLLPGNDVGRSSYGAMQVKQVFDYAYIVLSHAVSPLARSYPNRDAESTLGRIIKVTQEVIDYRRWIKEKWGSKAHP", "assay": "PAPD7 ATP depletion assay", "assay_type": "biochemical", "procedure": "(§1) Molecular cloning, expression, and purification of the recombinant human PAPD5 and PAPD7 proteins were performed at Xtal BioStructures (MA, USA). PAPD5 (amino acids 186 to 518; GenBank accession no. XM_011523275) and PAPD7 (amino acids 226 to 558; GenBank accession no. NM_006999.6) genes comprising of nucleotidyltransferase and PAP-associated domains were codon optimized, synthesized, and inserted in the expression vector pET-24a(+) for E. coli expression with 10×His-Flag-tobacco etch virus (TEV) tags at the N terminus. The pET-24a(+) constructs were transformed into E. coli-competent cells BL21(DE3). […] Expression of protein was induced for 16 h with 0.2 mM IPTG (isopropyl-β-D-thiogalactopyranoside) at 18°C. […] Roche). Cell suspension was sonicated 8 × 20 s at 27 to 30 W (power level, 3.5 to 4.0) with 40-s breaks between each pulse. Lysate was cleared by centrifugation in a 50-ml conical tube at 20,000 × g for 30 min (Fiberlite F13-14 × 50cy rotor in a Sorvall RC6 centrifuge). Supernatant was incubated with Ni-charged MagBeads (GenScript; catalog no. […] Bound proteins were washed with 50 ml binding buffer and eluted in elution buffer containing a gradient of imidazole ranging from 5 to 500 mM. Peak fractions were pooled and stored in 50% glycerol at -80°C. Reactions were carried out in duplicate in 96-well low-profile, skirted, white plates (catalog no. AB0800WL; […] The reaction mixtures were incubated at room temperature for 3 h, and ATP depletion was monitored by using Kinase-Glo luminescent kinase kit following the manufacturer's instructions (catalog no. V6712; Promega, WI, USA)."}, "[6]": {"system": "HBV", "assay": "AAV-HBV-transduced mouse model", "details": "7 days; for mean reduction of serum HBV DNA vs vehicle / mean reduction of serum HBsAg vs vehicle / reduction of intrahepatic HBsAg levels / reduction of intrahepatic pgRNA levels / reduction of intrahepatic total HBV RNA levels: oral"}, "[7]": {"system": "Human rhinovirus", "assay": "Antiviral selectivity panel, CPE in H1-HeLa cells", "assay_type": "cell-based", "details": "Human rhinovirus sp."}, "[8]": {"system": "RSV", "assay": "Antiviral selectivity panel, CPE in HEp2 cells", "assay_type": "cell-based", "details": "human respiratory syncytial virus, HEp-2"}, "[9]": {"system": "HBV", "assay": "Antiviral activity in HBV-infected HepG2-NTCP WT and KO clones", "assay_type": "cell-based, hepatitis B virus", "details": "for EC50: Hepatitis B virus, read-out: HBV infection EC50"}, "[10]": {"system": "HBV", "assay": "Antiviral assay in HBV-infected HepG2-NTCP cells", "assay_type": "cell-based", "details": "Hepatitis B virus"}, "[11]": {"system": "Influenza", "assay": "organism not typed", "assay_type": "cell-based", "details": "MDBK, CPE"}, "[12]": {"molecular_target": "T2, recombinant human PAPD5 (Homo sapiens, UniProt Q8NDF8)", "T2 construct": "PAPD5 (amino acids 186 to 518; XM_011523275); 10xHis (N); Flag (N); TEV cleavage site (N); host or cells: E. coli BL21(DE3), vector pET-24a(+)", "T2 sequence (Q8NDF8 106-438 limits assumed)": "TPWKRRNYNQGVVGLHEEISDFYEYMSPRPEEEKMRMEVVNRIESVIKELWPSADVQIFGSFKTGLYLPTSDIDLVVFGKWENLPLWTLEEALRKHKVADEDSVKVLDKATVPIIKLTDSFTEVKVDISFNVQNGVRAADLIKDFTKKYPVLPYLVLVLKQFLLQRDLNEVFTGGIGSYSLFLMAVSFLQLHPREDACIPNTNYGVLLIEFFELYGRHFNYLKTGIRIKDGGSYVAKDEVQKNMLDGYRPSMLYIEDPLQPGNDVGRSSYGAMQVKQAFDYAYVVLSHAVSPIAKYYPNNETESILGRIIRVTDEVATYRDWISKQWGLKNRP", "assay": "PAPD5 ATP depletion assay", "assay_type": "biochemical", "details": "truncated recombinant human PAPD5, ATP depletion", "procedure": "as §1"}},
  "note": "Read-outs that look alike come from different tables or passages of the source.",
  "data": [
    {"smiles": "COCCCOc1cc2c(nc1OC)-c1cc(=O)c(C(=O)O)cn1[C@H](C(C)C)C2", "note": "[AB-452]", "values": [
      {"measurement": "EC50", "setting": "[1]; T222, read-out: Adeno infection EC50, P7_KO (T2-22), HBsAg", "value": "7.1 ± 1.3", "unit": "nM"},
      {"measurement": "EC50", "setting": "[1]; read-out: Adeno infection EC50, P5_KO (T3-4), HBsAg", "value": "71.6 ± 31.2", "unit": "nM"},
      {"measurement": "EC50", "setting": "[1]; read-out: Adeno infection EC50, P5_KO (T3-15), HBsAg", "value": "56 ± 34", "unit": "nM"},
      {"measurement": "EC50", "setting": "[1]; read-out: Adeno infection EC50, P7_KO (T2-8), HBsAg", "value": "10 ± 1", "unit": "nM"},
      {"measurement": "EC50", "setting": "[1]; read-out: Adeno infection EC50, WT (parent) HepG2-NTCP, HBsAg", "value": "9 ± 4.6", "unit": "nM"},
      {"measurement": "Adeno infection FC vs WT", "setting": "[1]; P5_KO (T3-4)", "value": 8.0},
      {"measurement": "Adeno infection FC vs WT", "setting": "[1]; P5_KO (T3-15)", "value": 6.3},
      {"measurement": "Adeno infection FC vs WT", "setting": "[1]; P7_KO (T2-8)", "value": 1.1},
      {"measurement": "Adeno infection FC vs WT", "setting": "[1]; P7_KO (T2-22)", "value": 0.8},
      {"measurement": "Adeno infection FC vs WT", "setting": "[1]; WT (parent)", "value": 1},
      {"measurement": "inhibition in P5/7_DKO and Z14_KO cell lines", "setting": "[1]; adenovirus-transduced and HBV-infected clones (Fig. 7D to G)", "value": "did not show further inhibition than the untreated controls"},
      {"measurement": "poly(A) tail length of H133_dSLα transcripts", "setting": "[2]; untreated 71", "value": 62, "unit": "nucleotides"},
      {"measurement": "average poly(A) tail length of H133 transcripts", "setting": "[2]; untreated 124", "value": 64, "unit": "nucleotides"},
      {"measurement": "overall guanylation frequency, H133", "setting": "[2]; untreated about 60%", "value": 24, "unit": "%"},
      {"measurement": "EC50", "setting": "[3]; 120 h, read-out: EC50, Gluc_dHBx (Gluc activity)", "value": 4.2, "unit": "nM"},
      {"measurement": "EC50", "setting": "[3]; 120 h, read-out: EC50, H133_Gluc (Gluc activity)", "value": 10, "unit": "nM"},
      {"measurement": "EC50", "setting": "[3]; Huh-7, 120 h, read-out: EC50, Gluc_rcSLα (Gluc activity)", "value": "> 100", "unit": "nM"},
      {"measurement": "EC50", "setting": "[3]; Huh-7, 120 h, read-out: EC50, H133 (HBsAg)", "value": 2.5, "unit": "nM"},
      {"measurement": "EC50", "setting": "[3]; Huh-7, 120 h, read-out: EC50, H133_dLa (HBsAg)", "value": 4.3, "unit": "nM"},
      {"measurement": "EC50", "setting": "[4]", "value": "> 30000", "unit": "nM"},
      {"measurement": "IC50", "setting": "[5]", "value": 498, "unit": "nM"},
      {"measurement": "mean reduction of serum HBV DNA vs vehicle", "setting": "[6]; 0.1 mg/kg twice daily", "value": 0.79, "unit": "log10"},
      {"measurement": "mean reduction of serum HBsAg vs vehicle", "setting": "[6]; 0.1 mg/kg twice daily", "value": 0.68, "unit": "log10"},
      {"measurement": "reduction of intrahepatic HBsAg levels", "setting": "[6]; 0.1 mg/kg twice daily", "value": 64, "unit": "%"},
      {"measurement": "reduction of intrahepatic pgRNA levels", "setting": "[6]; 0.1 mg/kg twice daily", "value": 43, "unit": "%"},
      {"measurement": "reduction of intrahepatic total HBV RNA levels", "setting": "[6]; 0.1 mg/kg twice daily", "value": 35, "unit": "%"},
      {"measurement": "mean reduction of serum HBV DNA vs vehicle", "setting": "[6]; 0.3 mg/kg twice daily", "value": 1.16, "unit": "log10"},
      {"measurement": "mean reduction of serum HBsAg vs vehicle", "setting": "[6]; 0.3 mg/kg twice daily", "value": 0.72, "unit": "log10"},
      {"measurement": "reduction of intrahepatic HBsAg levels", "setting": "[6]; 0.3 mg/kg twice daily", "value": 69, "unit": "%"},
      {"measurement": "reduction of intrahepatic pgRNA levels", "setting": "[6]; 0.3 mg/kg twice daily", "value": 55, "unit": "%"},
      {"measurement": "reduction of intrahepatic total HBV RNA levels", "setting": "[6]; 0.3 mg/kg twice daily", "value": 55, "unit": "%"},
      {"measurement": "mean reduction of serum HBV DNA vs vehicle", "setting": "[6]; 1 mg/kg twice daily", "value": 0.94, "unit": "log10"},
      {"measurement": "mean reduction of serum HBsAg vs vehicle", "setting": "[6]; 1 mg/kg twice daily", "value": 0.93, "unit": "log10"},
      {"measurement": "reduction of intrahepatic HBsAg levels", "setting": "[6]; 1 mg/kg twice daily", "value": 83, "unit": "%"},
      {"measurement": "reduction of intrahepatic pgRNA levels", "setting": "[6]; 1 mg/kg twice daily", "value": 63, "unit": "%"},
      {"measurement": "reduction of intrahepatic total HBV RNA levels", "setting": "[6]; 1 mg/kg twice daily", "value": 66, "unit": "%"},
      {"measurement": "tolerability / body weight", "setting": "[6]; oral, 0.1, 0.3, 1 mg/kg twice daily, vs vehicle", "value": "well tolerated, with no significant change or reduction in body weight"},
      {"measurement": "EC50", "setting": "[7]", "value": "> 30000", "unit": "nM"},
      {"measurement": "EC50", "setting": "[8]", "value": "> 30000", "unit": "nM"},
      {"measurement": "EC50", "setting": "[9]; P5_KO (T3-4)", "value": "37.7 ± 8.3", "unit": "nM"},
      {"measurement": "EC50", "setting": "[9]; P5_KO (T3-15)", "value": "39.3 ± 3.2", "unit": "nM"},
      {"measurement": "EC50", "setting": "[9]; P7_KO (T2-8)", "value": "3.8 ± 1.5", "unit": "nM"},
      {"measurement": "EC50", "setting": "[9]; T222, P7_KO (T2-22)", "value": "3.2 ± 1.9", "unit": "nM"},
      {"measurement": "EC50", "setting": "[9]; WT (parent) HepG2-NTCP", "value": "2.7 ± 1.8", "unit": "nM"},
      {"measurement": "HBV infection FC vs WT", "setting": "[9]; P5_KO (T3-4)", "value": 14.0},
      {"measurement": "HBV infection FC vs WT", "setting": "[9]; P5_KO (T3-15)", "value": 14.6},
      {"measurement": "HBV infection FC vs WT", "setting": "[9]; P7_KO (T2-8)", "value": 1.4},
      {"measurement": "HBV infection FC vs WT", "setting": "[9]; P7_KO (T2-22)", "value": 1.2},
      {"measurement": "HBV infection FC vs WT", "setting": "[9]; WT (parent)", "value": 1},
      {"measurement": "EC50", "setting": "[10]; read-out: HBeAg EC50", "value": "4 ± 2.3", "unit": "nM"},
      {"measurement": "EC50", "setting": "[10]; read-out: HBsAg EC50", "value": "6.8 ± 1.8", "unit": "nM"},
      {"measurement": "EC50", "setting": "[11]", "value": "> 30000", "unit": "nM"},
      {"measurement": "IC50", "setting": "[12]", "value": 94, "unit": "nM"}
    ]}
  ]
}
